Measurements taken from patent publication US20190091175A1, “METHOD OF REDUCTION […] TREATING DRAVET SYNDROME” (ZOGENIX INTERNATIONAL LIMITED, priority 2017, published 2019).

How the values were obtained:
[1] = test system: self-induced photosensitive seizures; conditions: four cases; cited from earlier work
[2] = test system: children with refractory epilepsy; conditions: 0.5 to 1 mg/kg/day; cited from earlier work
[3] = test system: pattern sensitivity-induced seizures; conditions: one child; cited from earlier work
[4] = test system: patients with Dravet syndrome; conditions: long-term fenfluramine treatment; cited from earlier work
[5] = test system: subjects with Dravet syndrome; assay: Study 1: Phase 3 double-blind placebo-controlled study of liquid fenfluramine formulation (ZX008) in Dravet syndrome; type: in vivo, human
Protocol: The first 119 subjects to be randomized in both identical studies combined were analyzed and reported as Study 1 (FIG. 1), covered by a Statistical Analysis Plan (SAP).
Primary and key secondary endpoints in the Study 1 SAP were pre-determined. All patients were treated twice per day over a period of 14 weeks using an oral syringe to administer the formulation. The treatment period included a two-week titration period and a 12-week maintenance period.
The initial results of Study 1 are outlined below. The randomized, double blind, placebo controlled, Phase 3 study enrolled 119 patients across sites in the United States, Canada, Europe and Australia. The median age of patients was 8 years, the mean age of patients was 9 years (range, 2-18 years) (FIG. 2).
Patients were titrated to their target dose over two weeks, and then remained at that fixed dose for 12 weeks. The mean baseline convulsive seizure frequency across the study groups was approximately 40 seizures per month. 110 (92%) patients completed the study (85% 0.8 mg/kg/day; 100% 0.2 mg/kg/day; 93% placebo).
The mean number of convulsive seizure free days, defined as a day for which diary data are available and no convulsive seizures have been reported, was determined for each treatment group during the Baseline and T+M Periods. Using a parametric analysis, comparisons for the ZX008 groups to placebo were estimated from an ANCOVA model with treatment group (3 levels) and age group (<6 years, ≥6 years) as factors, log baseline number of convulsive seizure free days as a covariate and log convulsive seizure free days (Titration+Maintenance, or Maintenance Period) as response. The mean (SD) number of convulsive seizure free days per 28 days during the Baseline Period was 12.6 (7.68), 15.7 (6.80), and 14.6 (7.59) for the placebo, 0.2 and 0.8 mg/kg/day groups, respectively. […] The mean (SD) number of convulsive seizure free days for the 0.2 mg/kg/day group was 17.9 (8.04) days, which was numerically greater than placebo, but was not statistically significant (p=0.514). […]

## CCNC(C)Cc1cccc(C(F)(F)F)c1 (racemic) [Fenfluramine, (RS)-N-ethyl-1-[3-(trifluoromethyl)phenyl]propan-2-amine]
[1]
  response of self-induced photosensitive seizures: responded to treatment
[2]
  effect on number of seizures: reduction in the number of seizures
[3]
  effect on self-induced seizures resistant to anticonvulsive treatment: successfully terminated these self-induced seizures
[4]
  heart valve defects by echocardiography: No clinically relevant defects were identified
[5]; 0.8 mg/kg/day group
  subjects with an adverse event leading to study termination / discontinuation: Five
[5]; oral, 0.2 and 0.8 mg/kg/day, 14 weeks
  tolerability: generally well-tolerated
[5]; throughout the study
  prospective cardiac safety monitoring (clinical, echocardiographic): no clinical or echocardiographic evidence of cardiac valvulopathy or pulmonary hypertension
